In patent US4438031A, “N-(Alkylsulfonyl)-L-proline amide and N-(alkylsulfonyl)-2-carboxylic acid amide-indoline derivatives” (American Home Products Corporation, priority 1982, dated 1984):
Where a name gives a salt, the structure may show the parent alone.

How the values were obtained:
[1] = molecular target: T1, angiotensin converting enzyme (Oryctolagus cuniculus, UniProt P12822); assay: in vitro angiotensin converting enzyme (ACE) inhibition, rabbit lung extract, substrate hippuryl-L-histidyl-L-leucine (Cushman et al.); assay type: biochemical
T1 construct: The in vitro assay utilizes rabbit lung extract; from tissue; host or cells: rabbit lung extract
T1 sequence (P12822 34-1310): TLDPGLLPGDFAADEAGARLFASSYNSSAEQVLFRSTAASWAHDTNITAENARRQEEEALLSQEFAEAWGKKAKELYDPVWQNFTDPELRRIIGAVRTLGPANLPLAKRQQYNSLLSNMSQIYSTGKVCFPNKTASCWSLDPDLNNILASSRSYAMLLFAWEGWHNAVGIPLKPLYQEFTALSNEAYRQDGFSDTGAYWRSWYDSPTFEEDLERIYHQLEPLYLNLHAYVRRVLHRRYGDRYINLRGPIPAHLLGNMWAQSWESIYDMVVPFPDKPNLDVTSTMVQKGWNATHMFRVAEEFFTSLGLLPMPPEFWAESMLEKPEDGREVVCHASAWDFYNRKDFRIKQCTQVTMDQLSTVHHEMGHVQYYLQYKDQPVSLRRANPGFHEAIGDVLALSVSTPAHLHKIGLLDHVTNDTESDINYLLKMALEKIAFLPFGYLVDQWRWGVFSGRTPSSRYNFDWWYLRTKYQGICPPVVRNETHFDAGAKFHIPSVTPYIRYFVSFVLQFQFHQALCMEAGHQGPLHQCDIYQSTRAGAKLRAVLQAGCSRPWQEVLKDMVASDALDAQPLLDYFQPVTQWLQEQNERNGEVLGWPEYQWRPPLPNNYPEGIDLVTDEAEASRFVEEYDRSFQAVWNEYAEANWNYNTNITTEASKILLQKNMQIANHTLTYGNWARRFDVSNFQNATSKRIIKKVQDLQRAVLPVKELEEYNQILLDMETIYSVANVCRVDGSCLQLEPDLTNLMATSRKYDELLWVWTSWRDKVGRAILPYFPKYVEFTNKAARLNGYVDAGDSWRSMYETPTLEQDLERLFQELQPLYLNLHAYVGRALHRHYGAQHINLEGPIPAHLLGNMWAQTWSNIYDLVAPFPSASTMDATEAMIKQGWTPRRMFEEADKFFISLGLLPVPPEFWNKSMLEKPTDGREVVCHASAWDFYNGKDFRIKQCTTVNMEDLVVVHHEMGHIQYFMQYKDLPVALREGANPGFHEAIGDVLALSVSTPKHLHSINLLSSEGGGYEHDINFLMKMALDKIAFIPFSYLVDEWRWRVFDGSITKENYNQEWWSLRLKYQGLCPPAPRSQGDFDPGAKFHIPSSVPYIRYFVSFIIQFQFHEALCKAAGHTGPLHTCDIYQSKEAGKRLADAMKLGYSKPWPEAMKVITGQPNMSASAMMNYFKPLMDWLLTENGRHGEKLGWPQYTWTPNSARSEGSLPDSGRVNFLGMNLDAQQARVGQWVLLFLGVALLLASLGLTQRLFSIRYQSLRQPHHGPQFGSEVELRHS
Procedure: The angiotensin converting enzyme (ACE) inhibitory property of the compounds is measured in vitro and in vivo. The in vitro assay utilizes rabbit lung extract and a specific tripeptide substrate, hippuryl-L-histidyl-L-leucine being preferred, and follows the method of Cushman et al., Biochem. Pharmacol, 20, 1637-1648 (1971).

[2] = humans with certain forms of hypertension; cited from earlier work
[3] = oral administration; cited from earlier work

Compound	inhibition at 0.05 µg/mL ([1]; concentration 50 ng/ml) [%]	inhibition at 1 µg/mL ([1]; concentration 1000 ng/ml) [%]	oral activity as an anti-hypertensive agent [3]	also measured
C[C@H](CS)C(=O)N1CCC[C@H]1C(=O)NS(C)(=O)=O [Example 4, (S)-1-[(2S)-3-Mercapto-2-Methyl-1-Oxopropyl]-N-(Methylsulfonyl)-2-Pyrrolidinecarboxamide]	32	89 to 92		inhibition of angiotensin converting enzyme ([1]; concentration 50 ng/ml): 50-57%
Pyr-Trp-Pro-Arg-Pro-Gln-Ile-Pro-Pro (WPRPQIPP; N-terminal pyroglutamyl; printed: Trp-Pro-Arg-Pro-Gln-Ile-Pro-Pro) [BPP9a]			not orally active	anti-hypertensive effect in clinical studies [2]: effective anti-hypertensive agent
C[C@H](CS)C(=O)N1CCCC1C(=O)O (stereo in doubt) [D-3-mercapto-2-methylpropanoyl-L-proline]			effective when administered orally	
C[C@H](CSC(=O)c1ccccc1)C(=O)N1CCC[C@H]1C(=O)NS(C)(=O)=O [Example 3, Benzenecarbothioic Acid S-[(2S)-2-Methyl-3-[(2S)-2-[(Methylsulfonylamino)Carbonyl]-1-Pyrrolidinyl]-3-Oxopropyl]Ester]	14 to 21			inhibition of angiotensin converting enzyme ([1]; concentration 100 ng/ml): 31-37%; inhibition of angiotensin converting enzyme ([1]; concentration 1000 ng/ml): 76-80%
C[C@H](CSC(=O)c1ccccc1)C(=O)N1CCC[C@H]1C(=O)NS(C)(=O)=O [Example 1, Benzenecarbothioic Acid S-[(2S)-2-Methyl-3-[(2S)-2-[(Methylsulfonylamino)Carbonyl]-1-Pyrrolidinyl]-3-Oxopropyl]Ester, Dicyclohexylamine Salt]		80		inhibition at 0.1 µg/mL ([1]; concentration 100 ng/ml): 35 to 38%; inhibition of angiotensin converting enzyme ([1]; concentration 100 ng/ml, listed as Example 2): 35-38%
